In this experiment the test system is Pyricularia oryzae. The experiment is classed as cell-based. As to conditions: 125 ppm, microtiter plate, absorption at 405 nm on the seventh day after inoculation.

Structures are written as SMILES.

Turning to `CCCCCCCCc1c(N)nc(SC)nc1CC` [I-3, 6-ethyl-2-methylsulfanyl-5-octylpyrimidin-4-ylamine], the “growth (relative growth of the pathogen)” value was “inhibited completely”.
